Broadly, the Km is the concentration of substrate that gives half-maximal velocity.

The values that follow come from patent publication US20130029381A1, “MICROORGANISMS FOR THE PRODUCTION OF 1,4-BUTANEDIOL, 4-HYDROXYBUTANAL, 4-HYDROXYBUTYRYL-COA, PUTRESCINE AND RELATED COMPOUNDS, AND METHODS RELATED THERETO” (GENOMATICA, INC., priority 2009, published 2013).

Sequence of homoserine kinase (P00547 whole entry): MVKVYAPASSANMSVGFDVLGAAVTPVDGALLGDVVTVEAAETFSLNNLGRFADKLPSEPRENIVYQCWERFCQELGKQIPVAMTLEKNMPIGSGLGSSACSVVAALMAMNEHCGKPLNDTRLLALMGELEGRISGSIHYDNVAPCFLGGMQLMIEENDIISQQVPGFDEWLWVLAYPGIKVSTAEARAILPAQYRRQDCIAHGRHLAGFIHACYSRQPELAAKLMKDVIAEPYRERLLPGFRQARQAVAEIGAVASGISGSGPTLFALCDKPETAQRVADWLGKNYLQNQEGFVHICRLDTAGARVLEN

The first data set has as its system CCCC=O. Put plainly: ADH enzyme assay of Adh1 (084), Km for aldehyde substrates. To be noted: other: reductive ADH assay, enzyme expressed in E. coli; pH 7.5. It counts as biochemical, Geobacillus thermoglucosidasius. An excerpt: (§1) The Adh1 enzyme (084) expressed very well from its native gene in E. coli (see FIG. 32A).
In the case of “Adh1 enzyme (084) (Geobacillus sp. M10EXG)”, the Km came to 1.2 mM.

A further data set deals with O=CCCCO. The data set is described as above. It counts as biochemical, Geobacillus thermoglucosidasius. The following applies: other: reductive ADH assay, enzyme expressed in E. coli; pH 7.5.
Excerpt: as §1
Take “Adh1 enzyme (084) (Geobacillus sp. M10EXG)”: the Km came out at 4.0 mM.

For another data set, the target named is T1, L(+)-lactate dehydrogenase from A. eutrophus (Cupriavidus necator, UniProt Q07251).
T1 sequence (Q07251 1-349): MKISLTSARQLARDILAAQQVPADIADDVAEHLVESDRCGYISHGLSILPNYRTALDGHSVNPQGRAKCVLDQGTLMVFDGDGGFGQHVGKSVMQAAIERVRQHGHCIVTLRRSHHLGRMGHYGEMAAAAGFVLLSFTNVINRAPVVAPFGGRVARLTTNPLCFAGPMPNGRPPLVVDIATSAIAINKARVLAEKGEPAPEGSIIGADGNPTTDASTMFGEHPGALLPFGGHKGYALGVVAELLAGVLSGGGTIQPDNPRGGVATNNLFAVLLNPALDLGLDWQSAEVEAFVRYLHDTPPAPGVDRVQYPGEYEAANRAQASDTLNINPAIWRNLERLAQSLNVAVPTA
Test: not given
To be noted: compared with that on pyruvate; cited from earlier work.
For the molecule `O=C(O)C(=O)CF` [3-Fluoropyruvate], the “Activity (%) of L(+)-lactate dehydrogenase from A. eutrophus” value (“Activity (%) … from A. eutrophus” below) is listed as 33.6%. In the case of `CCC(=O)C(=O)O` [2-Oxobutyrate], the “Activity (%) … from A. eutrophus” value is on record as 107.0%.

As to `O=C(O)CCC(=O)C(=O)O` [2-Oxoglutarate], the “Activity (%) … from A. eutrophus” value is listed as 79.6%. Regarding `CCCC(=O)C(=O)O` [2-Oxovalerate], the “Activity (%) … from A. eutrophus” value is on record as 125.0%.

In the case of `CC(C)C(=O)C(=O)O` [3-Methyl-2-oxobutyrate], the “Activity (%) … from A. eutrophus” value is given as 28.5%.

In a further data set the target is T2, L(+)-lactate dehydrogenase from rabbit muscle (Oryctolagus cuniculus, UniProt P13491).
T2 construct: rabbit muscle; host or cells: rabbit muscle
Test: not given
The following applies: compared with that on pyruvate; cited from earlier work.
For the molecule `O=CC(=O)O` [Glyoxylate], the “Activity (%) of L(+)-lactate dehydrogenase from rabbit muscle” value is 23.9%.

Another data set concerns the target homoserine kinase (Escherichia coli, UniProt P00547).
Test: not given
To be noted: cited from earlier work.
`N[C@@H](CCO)C(=O)O` [L-homoserine]: the Km was 0.14 ± 0.04 mM. On to `N[C@H](CO)CCO` [L-2-amino-1,4-butanediol], for which the Km was 11.6 ± 6.5 mM.

For `N[C@H](CCO)C(=O)O` [D-homoserine], the Km is 31.8 ± 7.2 mM. In the case of `COC(=O)[C@@H](N)CCO` [L-homoserine methyl ester], the Km is 4.9 ± 2 mM. Consider `CC(C)OC(=O)[C@@H](N)CCO` [L-homoserine isopropyl ester], for which the Km was 1.2 ± 0.5 mM. With `CCCOC(=O)[C@@H](N)CCO` [L-homoserine n-propyl ester], the Km was 3.5 ± 0.4 mM. Regarding `CC(C)COC(=O)[C@@H](N)CCO` [L-homoserine isobutyl ester], the Km is 6.9 ± 1.1 mM.

As for `CCOC(=O)[C@@H](N)CCO` [L-homoserine ethyl ester], the Km was 1.9 ± 0.5 mM.
